These results are taken from ChEMBL document CHEMBL1124686.

Assay [1] has as its target D(2) dopamine receptor (Mus musculus) (UniProt P61168). The experiment in a line: The dissociation constant for the inhibition of agonist effect on the K+ evoked release of [3H]- acetylcholine in mouse striatal […]; NS means No statistically significant antagonism observed in […]. It counts as functional.
Assay [2] has the same target. Nature of the assay: Compound was evaluated for its ability to inhibit the potassium -induced release of [3H]- acetylcholine release in mouse striatal […] by stimulating dopamine receptor D2. The note with it: Striatum.
For assay [3] the target is unchanged. The experiment in a line: Compound was evaluated for its ability to inhibit the potassium -induced release of [3H]- acetylcholine release in mouse striatal […] by stimulating D2 receptor. The note with it: Striatum.
Assay [4] has the same target. The note with it: Striatum; Membrane.
Description: Compound was evaluated for its ability to inhibit the potassium -induced release of [3H]- acetylcholine release in mouse striatal membranes by stimulating Dopamine receptor D2

Calls of active or inactive are those of the source. The rule behind the calls is not given here.

Chain of D(2) dopamine receptor (Mus musculus) (P61168 whole entry): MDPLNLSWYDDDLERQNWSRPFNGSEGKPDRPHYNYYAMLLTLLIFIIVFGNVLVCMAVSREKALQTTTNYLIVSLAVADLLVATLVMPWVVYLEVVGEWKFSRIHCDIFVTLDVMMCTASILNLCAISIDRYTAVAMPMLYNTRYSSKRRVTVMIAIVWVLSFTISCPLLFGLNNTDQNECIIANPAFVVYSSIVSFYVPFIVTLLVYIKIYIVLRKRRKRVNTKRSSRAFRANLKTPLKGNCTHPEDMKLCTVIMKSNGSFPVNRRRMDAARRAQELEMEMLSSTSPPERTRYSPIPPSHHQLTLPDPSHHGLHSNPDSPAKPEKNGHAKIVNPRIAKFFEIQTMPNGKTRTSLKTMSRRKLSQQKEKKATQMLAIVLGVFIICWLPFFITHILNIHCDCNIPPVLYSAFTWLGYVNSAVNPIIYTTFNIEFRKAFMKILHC

On to `COc1ccc(S(N)(=O)=O)cc1C(=O)NCC1CCCS1` (stereo unspecified), for which the Kb entry in assay [1] is “inactive”. In assay [2], this compound yielded an ED50 of 48.1 nM.
In assay [3], `CC[S+]1CCCC1CNC(=O)c1cc(S(N)(=O)=O)ccc1OC` (stereo unspecified) had an ED50 of 38.4 nM.
In assay [2], `CC[N+]1(C)CCCC1CNC(=O)c1cc(S(N)(=O)=O)ccc1OC` (stereo unspecified) registered an ED50 of 25.1 nM.
On to `CC[N+]1(CC)CCCC1CNC(=O)c1cc(S(N)(=O)=O)ccc1OC` (stereo unspecified), for which the ED50 in assay [2] is 26.3 nM.
Take `CCN1CCCC1CNC(=O)c1cc(S(N)(=O)=O)ccc1OC` (stereo unspecified): in assay [4], the ED50 came out at 75.9 nM.
